Data as given in PMC6396489 (Cell Communication and Signaling : CCS, 2019).
Residue numbers refer to the chain shown, from its start.

Key:
Shp1 = target: T1, Shp1 (Homo sapiens, UniProt P29350); assay: SPR competition assay with free GroPIns4P; conditions: Shp1 1.2 μM; read-out: EC50 of competition with Shp1 binding to GroPIns4P-Bio chip
T1 construct: the C-terminal truncated form of human Shp1 cDNA (His-Shp1; amino acids 1–529); made in house; host or cells: E. coli BL21(DE3)
T1 sequence (P29350 1-529 isoform P29350-3): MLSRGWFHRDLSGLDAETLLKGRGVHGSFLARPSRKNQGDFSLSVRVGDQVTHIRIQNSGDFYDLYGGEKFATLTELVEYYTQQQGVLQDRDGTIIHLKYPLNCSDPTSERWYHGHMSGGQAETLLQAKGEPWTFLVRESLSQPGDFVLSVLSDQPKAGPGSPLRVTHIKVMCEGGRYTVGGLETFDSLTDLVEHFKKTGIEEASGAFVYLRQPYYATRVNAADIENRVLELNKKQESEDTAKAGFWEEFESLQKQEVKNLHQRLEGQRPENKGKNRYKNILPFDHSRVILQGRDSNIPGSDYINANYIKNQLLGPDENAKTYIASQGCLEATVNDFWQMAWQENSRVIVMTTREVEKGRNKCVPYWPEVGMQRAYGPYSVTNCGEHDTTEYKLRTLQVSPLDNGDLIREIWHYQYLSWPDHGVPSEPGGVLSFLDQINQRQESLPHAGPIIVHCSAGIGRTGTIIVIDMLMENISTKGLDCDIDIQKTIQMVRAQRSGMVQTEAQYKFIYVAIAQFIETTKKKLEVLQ
Method: For the competition experiments, SPR assays were performed at a fixed concentration of Shp1 (1.2 μM) in the presence of increasing concentrations of GroPIns4P (0.0 to 5.0 μM). Both Shp1 and GroPIns4P were dissolved in HBS-EP buffer and incubated for 10 min before injection onto the SA sensor chip. The flow was fixed to 20 μL/min, and the time of injection was 3 min. A solution of 2.0 mM glycine/HCl, pH 3.0, was used in the regeneration step to remove the analyte bond before reusing the sensor chip.

[1] = target: T2, Shp1 S118A/R138E/S140A mutant (Homo sapiens, UniProt P29350, R136E/S116A/S138A); assay: Isothermal titration calorimetry, Shp1 S118A/R138E/S140A mutant; format: binding; conditions: very small heat effect, value not with sufficient confidence
T2 construct: a tailless-form of Shp1 (residues 1–529) has previously been used [25] and it is used also in this study; 6xHis (N); made in house; host or cells: E. coli BL21(DE3)
T2 sequence (P29350 1-529 isoform P29350-3 S118A/R138E/S140A): T1 sequence (P29350 1-529 isoform P29350-3) with S118A, R138E, S140A
Method: ITC measurements were performed by using a Nano-ITC III (TA instruments, New Castle, DE, USA) with a reaction cell volume of 1 ml kept at 25 °C. A protein solution of 10 μM was titrated into the calorimetric cell with a solution of 50–100 μM of the ligand GroPIns4P (Ins4P) in the syringe. A sequence of 16 injections of 15 μL volume was programmed with a stirring speed of 250 rpm at 500 s intervals. Protein samples were prepared with protein solutions at 25 °C in 20 mM Tris buffer pH 7.4 with 50 mM NaCl and 1 mM TCEP. To minimise the differences in buffer composition and pH between cell and syringe, both ligand and protein solutions were prepared with the same batch of buffer. The heat of dilution of the GroPIns4P into the buffer solution was measured in a separate experiment and appropriate corrections were made. The heat evolved after each ligand injection was obtained from the integral of the calorimetric signal. Raw data were integrated, corrected for non-specific heats and normalized for concentration. The equilibrium dissociation constant (KD), binding enthalpy (ΔbH) and binding stoichiometry (n) were obtained by nonlinear regression of the experimental data using a model of independent binding sites, by means of the NanoAnalyze software. Experiments were performed in duplicate.

Shp1 cSH2 domain = tested on: T3, Shp1 cSH2 domain; assay: NMR 1H-15N HSQC titration of cSH2 domain; format: binding, human; conditions: fast exchange regime, cSH2:GroPIns4P up to 1:5
T3 construct: The purified C-terminal SH2 domain (cSH2) was selected for these studies; made in house
Method: A suite of triple resonance experiments (Additional file 1 Table S1) was used for assignment of the ^1H, ^15N and ^13C backbone resonances of the Shp1 cSH2 domain. All experiments were acquired on a 700 MHz Bruker Avance instrument equipped with a TCI cryoprobe. Assignment of the cSH2 domain backbone resonances was complete with the exception of the resonances of S109 and G175. ^15N cSH2 (200 μM) was titrated with GroPIns4P, and a series of ^1H–^15N-HSQC spectra were recorded at different cSH2:GroPIns4P ratios up to a 1:5 ratio. […] The ^1HN and ^15N chemical shift perturbations were estimated by using the following equation [23]: Δδ=ΔHN^2+ΔN/5^2/2^1/2
Where ΔHN and ΔN are the differences between the ^1H and ^15N chemical shifts of free cSH2 and cSH2 in the presence of GroPIns4P, respectively.

Src = tested on: Src; set-up: method as in PMID 18722484; conditions: cited from earlier work
Shp1 and Src = tested on: T4, Shp1 and Src; assay: Acceptor photobleaching FRET of Shp1-CFP and Src-YFP; format: cell-based; conditions: 50 μM for 5 min
T4 construct: expressed in transfected cells; host or cells: NIH3T3
Method: Acceptor photobleaching (apFRET) experiments were carried out with Leica SP5 confocal microscope, as follows: for CFP (donor) fluorescence detection, excitation at 458 nm and fluorescence detected at 470–490 nm. For YFP bleaching, a 514 nm argon laser was used. apFRET was measured by increase in CFP fluorescence intensity before (IDA) and after (ID) YFP photobleaching. To ensure reproducibility and reliability of CFP fluorescence measurements in the absence of acceptor (ID), YFP was photobleached to 10% of its initial fluorescence. The FRET efficiency was calculated as E = (ID − IDA)/ ID .

EC50 (Shp1): ~800 nM
KD relative to Shp1 WT [1]: about one order of magnitude higher
SMILES: O=P(O)(O)OC1C(O)C(O)C(OP(=O)(O)OCC(O)CO)C(O)C1O (stereo not drawn) [GroPIns4P, glycerophosphoinositol 4-phosphate]
exchange rate between bound and free cSH2 (Shp1 cSH2 domain): higher than 2 × 10^3 s^-1
direct interaction with Src (Src): no direct interaction
FRET efficiency in hot spots (Shp1 and Src; lamellar regions): over 20%
average FRET efficiency (Shp1 and Src; over the cells): 9%
